Results as given in US8569289B2, “Fumarate salt of 4-bromophenyl 1,4-diazabicyclo[3.2.2]nonane-4-carboxylate, crystalline forms thereof, preparation thereof and therapeutic use thereof” (Sanofi, priority 2008, dated 2013).

Assays:
[1] = Test of thermal stability in the solid state - appearance; format: physicochemical
Experimental: Test of thermal stability in the solid state
(§1) The base and the fumarate salt of the compound of formula (I) are analyzed after 1, 7 and 14 days of storage at: • 80° C.; • 80° C. and under 80% relative humidity (RH). Appearance
In contrast, the appearance of the fumarate salt of the compound of formula (I) remains unchanged.

[2] = Thermal stability in the solid state - quantitative determination of nondecomposed product and impurities by HPLC; format: physicochemical; settings: for Sum % imp. quantified (% surf.): HPLC UV 220 nm; for Non-decomposed base / product (%): HPLC, % (w/w) of nondecomposed base
Experimental: as §1
Quantitative Determination of the Nondecomposed Product and Percentage of Impurities
Chromatographic Conditions
Column: Inertsil ODS 3 150×4.6 mm, 5 μm, maintained at 25° C.
Buffer pH 4.5: 0.01M KH2PO4, 0.5 g/l sodium heptanesulfonate pH adjusted to 4.5 with 1M KOH
Phase A: 90 V buffer pH 4.5
• 10 V acetonitrile Phase B: 20 V buffer pH 4.5 • 80 V acetonitrile Gradient: from 100% of phase A to 80% of phase B in 40 min Flow rate: 1.0 ml/min Detection: UV, λ=220 nm (optical path: 1 cm) Solutions injected: 0.2 mg (base or salt)/ml solutions in a mixture of 50 volumes of water and 50 volumes of acetonitrile. Comment: for the quantitative determinations, the results obtained are expressed in % (w/w) of nondecomposed base (by calibrating with nondecomposed base or salt controls stored at ambient temperature).
Comment: the sum of the impurities quantified may be less after storing at 80° C. under 80% relative humidity because impurities may decompose to give products which cannot be detected by UV or which are not separated by the analytical conditions.

[3] = Instantaneous solubility tests; format: physicochemical
Experimental: The instantaneous solubilities of the base and of the fumarate salt of the compound of formula (I) were determined in the following media: • water; • buffer pH 1.2: 0.01M KH2PO4, pH adjusted with orthophosphoric acid; • buffer pH 7.2: 0.2M KH2PO4, pH adjusted with KOH; • buffer pH 9.0: 0.04M Na2B4O7.10H2O, pH adjusted with boric acid; • dimethyl sulfoxide (DMSO).
Determination of the instantaneous solubilities: successive volumes of the medium are added to the test specimen until the compound has dissolved. Stirring is carried out with a vortex mixer at ambient temperature.
Information on the corresponding classification according to the European Pharmacopoeia is also given therein.

[4] = format: physicochemical
Text: In contrast, the fumarate salt of 4-bromophenyl 1,4-diazabicyclo[3.2.2]nonane-4-carboxylate crystallizes in two nonhygroscopic polymorphic forms (forms I and II). […] This property of the two polymorphic forms of the fumarate salt of 4-bromophenyl 1,4-diazabicyclo[3.2.2]nonane-4-carboxylate is an advantage in comparison with the hydrochloride salt of 4-bromophenyl 1,4-diazabicyclo[3.2.2]nonane-4-carboxylate.

[5] = solid state, 80° C./80% RH, 1 d
[6] = solid state, 80° C./80% RH, 7 d
[7] = solid state, 80° C./80% RH, 14 d
[8] = buffer pH 1.2, ambient temperature
[9] = buffer pH 7.2, ambient temperature
[10] = buffer pH 9.0, ambient temperature

Compound | Appearance ([1]; Initial appearance) | Appearance ([1]; solid state, 80° C., 1 d) | Appearance ([1]; solid state, 80° C., 7 d) | Appearance ([1]; solid state, 80° C., 14 d) | Appearance [1, 5] | Appearance [1, 6] | Appearance [1, 7] | Sum % imp. quantified (% surf.) ([2]; Initial) | Sum % imp. quantified (% surf.) ([2]; solid state, 80° C., 7 d) | Non-decomposed base / product (%) ([2]; solid state, 80° C., 7 d) | Sum % imp. quantified (% surf.) ([2]; solid state, 80° C., 14 d) | Non-decomposed base / product (%) ([2]; solid state, 80° C., 14 d) | Sum % imp. quantified (% surf.) [2, 6] [% surf.] | Non-decomposed base / product (%) [2, 6] [%] | Sum % imp. quantified (% surf.) [2, 7] [% surf.] | Non-decomposed base / product (%) [2, 7] [%] | Solubility classification according to the European Pharmacopoeia ([3]; DMSO) | Instantaneous solubility ([3]; DMSO, ambient temperature) | Solubility classification according to the European Pharmacopoeia ([3]; Water) | Instantaneous solubility ([3]; Water, ambient temperature) | other results
O=C(Oc1ccc(Br)cc1)N1CCN2CCC1CC2 [Base, 4-Bromophenyl 1,4-diazabicyclo[3.2.2]nonane-4-carboxylate] | Virtually white | Pale yellow | Pale yellow | Pale yellow | Yellow-brown | Brown | Brown | 4.02 | 3.57 | 100 | 3.14 | 99.9 | 4.37 | 98.7 | 4.53 | 98.3 | Soluble | ~75 g of product/l | Slightly soluble | <2 g of product/l | Solubility classification according to the European Pharmacopoeia ([3]; buffer pH 1.2): Freely soluble; Instantaneous solubility [3, 8]: 140 g of product/l; Solubility classification according to the European Pharmacopoeia ([3]; buffer pH 7.2): Slightly soluble; Instantaneous solubility [3, 9]: <2 g of product/l; Solubility classification according to the European Pharmacopoeia ([3]; buffer pH 9.0): Slightly soluble; Instantaneous solubility [3, 10]: <2 g of product/l
O=C(O)/C=C/C(=O)O.O=C(Oc1ccc(Br)cc1)N1CCN2CCC1CC2 [Fumarate, fumarate salt of 4-bromophenyl 1,4-diazabicyclo[3.2.2]nonane-4-carboxylate] | White powder | unchanged | unchanged | unchanged | unchanged | unchanged | unchanged | 0.32 | 0.60 | 99.6 | 0.53 | 100 | 0.74 | 99.7 | 0.83 | 100 | Freely soluble | ~140 g of product/l | Sparingly soluble | ~27 g of product/l | Solubility classification according to the European Pharmacopoeia ([3]; buffer pH 1.2): Sparingly soluble; Instantaneous solubility [3, 8]: ~16 g of product/l; Solubility classification according to the European Pharmacopoeia ([3]; buffer pH 7.2): Soluble; Instantaneous solubility [3, 9]: ~75 g of product/l; Solubility classification according to the European Pharmacopoeia ([3]; buffer pH 9.0): Soluble; Instantaneous solubility [3, 10]: ~68 g of product/l
O=C(O)/C=C/C(=O)O.O=C(Oc1ccc(Br)cc1)N1CCN2CCC1CC2 [form I, fumarate salt of 4-bromophenyl 1,4-diazabicyclo[3.2.2]nonane-4-carboxylate] | – | – | – | – | – | – | – | – | – | – | – | – | – | – | – | – | – | – | – | – | Hygroscopicity of the polymorphic form [4]: nonhygroscopic; Impact of water on the crystalline form ([4]; water in the vapor or liquid form): no impact on the crystalline form
Cl.O=C(Oc1ccc(Br)cc1)N1CCN2CCC1CC2 [hydrochloride, hydrochloride salt of 4-bromophenyl 1,4-diazabicyclo[3.2.2]nonane-4-carboxylate] | – | – | – | – | – | – | – | – | – | – | – | – | – | – | – | – | – | – | – | – | Forms shown by the water sorption/desorption isotherm [4]: present in a hemihydrate form and two anhydrous forms; Stability of the water stoichiometry ([4]; under the effect of temperature or when flushing with nitrogen): has a tendency to lose its water stoichiometry
